From patent US20210395239A1 (Hoffmann-La Roche Inc., priority 2018, published 2021)

Key:
CYP3A4 = target: T1, CYP3A4 (Homo sapiens, UniProt P08684); assay: CYP inhibition assay in human liver microsome, CYP3A4; format: in vitro ADME; details: human, human liver microsomes, probe midazolam 5 μM, substrate midazolam 5 μM, third value of 2C9/2D6/3A4
T1 construct: tissue BD-Gentest 452117; host or cells: human liver microsomes
Protocol: (§1) This is a high throughput screening assay used for assessment of reversible inhibition of CYP2C9, CYP2D6, and CYP3A4 activity of test compounds in human liver microsome (HLM) in early discovery stage.
(§2) 10 mM DMSO stock solutions of test compounds were diluted in DMSO to generate 2 mM intermediate stock solution. 250 nL, of intermediate stock solution were transferred in duplicate into 3 separate 384 well microtitre plates (assay-ready plates). A mixture of HLM and each substrate was made up. 45 μL of HLM substrate mix was then transferred to each well of an assay ready plate and mixed. The negative (solvent) and positive controls (standard inhibitor for each CYP) were included in each assay ready plate. The assay ready plate was warmed to 37° C. in an incubator over 10 minutes. 5 μL pre-warmed NADPH regenerating system was added to each incubation well to start the reaction. Final incubation volume was 50 μL. The assay plate then was placed back in the 37° C. incubator. After incubation (10 minutes for CYP2D6) for 5 minutes, incubates were quenched by addition of 50 μL 100% acetonitrile containing internal standards (400 ng/mL 13C6-4′-OH-Diclofenac, 20 ng/mL D3-Dextrorphan and 20 ng/mL D4-1′OH-Midazolam). The supernatants were collected for RapidFire/MS/MS analysis.
(§3) RapidFire online solid phase extraction/sample injection system (Agilent) coupled with API4000 triple quadrupole mass spectrometer (AB Sciex) were used for sample analysis. The mobile phase composed of acetonitrile and water supplemented with 0.1% formic acid. A C4 solid phase extraction cartridge is used for sample separation. MS detection is achieved in positive ion MRM mode.
(§4) Peak areas for substrate, metabolite and internal standard are determined using the RapidFire integrator software (version 3.6.12009.12296). Peak area ratios (PAR) of metabolite and internal standard (stable-labelled metabolite) are then calculated. The measurement window for each experiment is then defined:
(§5) PAR (0% activity)=average PAR for all incubations containing concentrated inhibitor; Par (100% activity)=average PAR for all incubations containing no inhibitor (DMSO controls); % Activity (test inhibitor)=[PAR (test inhibitor)−PAR (0% activity)]/[PAR (100% activity)−PAR (0% activity)]; % Inhibition (test inhibitor)=100-% Activity (test inhibitor).

human TLR8 = target: T2, human TLR8 (Homo sapiens, UniProt Q9NR97); assay: HEK293-Blue-hTLR-8 cells assay (SEAP reporter, R848 stimulation); format: cell-based; details: HEK293-Blue-hTLR8 cells, R848, 20 hrs; read-out: HEK/hTLR8 IC50
T2 construct: host or cells: HEK293 (HEK-Blue hTLR8)
T2 sequence (Q9NR97 27-1041): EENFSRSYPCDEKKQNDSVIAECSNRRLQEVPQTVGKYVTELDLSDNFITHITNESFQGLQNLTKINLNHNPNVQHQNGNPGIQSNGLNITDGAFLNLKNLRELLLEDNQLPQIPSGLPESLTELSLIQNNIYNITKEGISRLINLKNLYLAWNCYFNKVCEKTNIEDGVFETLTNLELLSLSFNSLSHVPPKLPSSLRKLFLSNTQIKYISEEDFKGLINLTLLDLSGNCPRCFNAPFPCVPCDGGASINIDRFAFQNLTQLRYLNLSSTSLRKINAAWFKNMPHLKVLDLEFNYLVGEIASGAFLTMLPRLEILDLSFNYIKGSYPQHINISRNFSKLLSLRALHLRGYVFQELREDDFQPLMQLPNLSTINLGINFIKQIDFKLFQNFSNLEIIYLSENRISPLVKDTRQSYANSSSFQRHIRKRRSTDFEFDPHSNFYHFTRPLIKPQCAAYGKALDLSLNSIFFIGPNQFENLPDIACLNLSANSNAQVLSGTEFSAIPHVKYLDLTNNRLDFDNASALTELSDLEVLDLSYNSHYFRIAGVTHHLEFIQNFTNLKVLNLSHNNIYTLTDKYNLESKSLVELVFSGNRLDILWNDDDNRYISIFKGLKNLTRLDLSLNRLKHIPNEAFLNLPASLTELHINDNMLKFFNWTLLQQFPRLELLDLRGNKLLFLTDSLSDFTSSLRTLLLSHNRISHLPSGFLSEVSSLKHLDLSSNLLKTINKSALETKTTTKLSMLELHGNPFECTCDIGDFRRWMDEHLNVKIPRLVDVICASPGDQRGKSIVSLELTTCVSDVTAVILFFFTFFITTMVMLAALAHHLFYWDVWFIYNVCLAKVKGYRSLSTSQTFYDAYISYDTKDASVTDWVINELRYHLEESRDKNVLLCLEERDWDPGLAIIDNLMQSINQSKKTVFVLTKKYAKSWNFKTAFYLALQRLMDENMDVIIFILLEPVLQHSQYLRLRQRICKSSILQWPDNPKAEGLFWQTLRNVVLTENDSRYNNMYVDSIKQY
Procedure, shortened: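 Antagonism read as reduced R848-induced SEAP reporter secretion, detected by QUANTI-Blue absorbance at 620–655 nm after 2 h. Reporter cells were exposed to compound dilutions in DMEM/10% FBS, 1% DMSO, for 20 h at 37° C.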

CYP2C9 = target: T3, CYP2C9 (Homo sapiens, UniProt P11712); assay: CYP inhibition assay in human liver microsome, CYP2C9; format: in vitro ADME; details: human, human liver microsomes, probe diclofenac 5 μM, substrate diclofenac 5 μM, first value of 2C9/2D6/3A4
T3 construct: tissue BD-Gentest 452117; host or cells: human liver microsomes
Protocol: as §1, §2, §3, §4, §5

T3 sequence (P11712 whole entry): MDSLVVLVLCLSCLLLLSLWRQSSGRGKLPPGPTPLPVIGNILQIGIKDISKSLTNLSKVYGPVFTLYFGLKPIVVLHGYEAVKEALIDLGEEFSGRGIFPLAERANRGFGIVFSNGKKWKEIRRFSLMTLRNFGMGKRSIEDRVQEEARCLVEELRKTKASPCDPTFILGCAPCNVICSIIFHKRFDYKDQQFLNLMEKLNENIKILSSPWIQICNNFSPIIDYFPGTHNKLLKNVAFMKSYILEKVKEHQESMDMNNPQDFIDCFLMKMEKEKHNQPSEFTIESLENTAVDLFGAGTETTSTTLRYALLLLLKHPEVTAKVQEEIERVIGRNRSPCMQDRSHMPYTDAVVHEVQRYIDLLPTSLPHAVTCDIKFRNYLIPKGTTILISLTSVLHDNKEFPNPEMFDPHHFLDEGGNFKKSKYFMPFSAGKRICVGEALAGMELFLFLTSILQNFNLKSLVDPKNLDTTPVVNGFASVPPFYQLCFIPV
T1 sequence (P08684 whole entry): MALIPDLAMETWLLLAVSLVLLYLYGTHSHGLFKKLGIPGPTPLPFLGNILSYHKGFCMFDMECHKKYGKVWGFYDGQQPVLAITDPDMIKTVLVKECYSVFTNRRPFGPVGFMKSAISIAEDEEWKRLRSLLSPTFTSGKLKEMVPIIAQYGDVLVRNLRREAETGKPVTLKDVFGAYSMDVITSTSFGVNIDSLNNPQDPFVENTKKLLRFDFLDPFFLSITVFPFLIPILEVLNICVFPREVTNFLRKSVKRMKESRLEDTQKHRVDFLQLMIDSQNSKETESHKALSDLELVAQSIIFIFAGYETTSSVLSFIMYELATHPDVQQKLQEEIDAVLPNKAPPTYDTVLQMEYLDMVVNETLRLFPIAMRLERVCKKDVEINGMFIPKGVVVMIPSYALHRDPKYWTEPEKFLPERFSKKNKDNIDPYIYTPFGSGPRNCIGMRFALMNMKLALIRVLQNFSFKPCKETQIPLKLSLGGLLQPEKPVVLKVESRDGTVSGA

`[2H]c1ccc2c(N3C[C@H](CN4CCN(c5nc(C)cc(N6C[C@H](OC)[C@@H](N)C6)n5)CC4)O[C@H](C)C3)ccc(C#N)c2n1` [Example 134, 5-[(2S,6R)-2-[[4-[4-[(3S,4S)-3-amino-4-methoxy-pyrrolidin-1-yl]-6-methyl-pyrimidin-2-yl]piperazin-1-yl]methyl]-6-methyl-morpholin-4-yl]-2-deuterio-quinoline-8-carbonitrile] showed an inhibition at 5 min, 10 µM (CYP3A4) of 47.5%, an IC50 (human TLR8) of 1 nM and an inhibition at 5 min, 10 µM (CYP2C9) of 44.5%.
`[2H]c1ccc2c(N3C[C@H](CN4CCN(c5ccc(N6C[C@@H](N)[C@H](OC)C6)nc5)CC4)O[C@H](C)C3)ccc(C#N)c2n1` [Example 143, 5-[(2S,6R)-2-[[4-[6-[(3R,4R)-3-amino-4-methoxy-pyrrolidin-1-yl]-3-pyridyl]piperazin-1-yl]methyl]-6-methyl-morpholin-4-yl]-2-deuterio-quinoline-8-carbonitrile] gave an inhibition at 5 min, 10 µM (CYP3A4) of 18%, an IC50 (human TLR8) of 8 nM and an inhibition at 5 min, 10 µM (CYP2C9) of -9.5%.
With `[2H]c1ccc2c(N3C[C@H](CN4CCN(c5ccc(N6CC7(CNCCO7)C6)nc5)CC4)O[C@H](C)C3)ccc(C#N)c2n1` [Example 152, 2-deuterio-5-[(2R,6S)-2-methyl-6-[[4-[6-(5-oxa-2,8-diazaspiro[3.5]nonan-2-yl)-3-pyridyl]piperazin-1-yl]methyl]morpholin-4-yl]quinoline-8-carbonitrile] the inhibition at 5 min, 10 µM (CYP3A4) was 35%, the IC50 (human TLR8) was 17 nM and the inhibition at 5 min, 10 µM (CYP2C9) was -1%.
With `C[C@@H]1CN(c2ccc(C#N)n3ncc(F)c23)C[C@H](CN2CCN(c3ccc(N4CC(C)(N)C4)nc3)CC2)O1` [Example 154, 4-[(2S,6R)-2-[[4-[6-(3-amino-3-methyl-azetidin-1-yl)-3-pyridyl]piperazin-1-yl]methyl]-6-methyl-morpholin-4-yl]-3-fluoro-pyrazolo[1,5-a]pyridine-7-carbonitrile] the inhibition at 5 min, 10 µM (CYP3A4) was 10.5%, the IC50 (human TLR8) was 50 nM and the inhibition at 5 min, 10 µM (CYP2C9) was 2.5%.
With `C[C@@H]1CN(c2ccc(C#N)n3ncc(F)c23)C[C@H](CN2CC(c3ccc(N4CC(C)(N)C4)nc3)C2)O1` [Example 158, 4-[(2S,6R)-2-[[3-[6-(3-amino-3-methyl-azetidin-1-yl)-3-pyridyl]azetidin-1-yl]methyl]-6-methyl-morpholin-4-yl]-3-fluoro-pyrazolo[1,5-a]pyridine-7-carbonitrile] the inhibition at 5 min, 10 µM (CYP3A4) was -0.5%, the IC50 (human TLR8) was 37 nM and the inhibition at 5 min, 10 µM (CYP2C9) was -5.5%.
Molecule `C[C@@H]1CN(c2ccc(C#N)n3ncc(F)c23)C[C@H](CN2CC(c3ccc(N4CC(C)(N)C4)cc3)C2)O1` [Example 160, 4-[(2S,6R)-2-[[3-[4-(3-amino-3-methyl-azetidin-1-yl)phenyl]azetidin-1-yl]methyl]-6-methyl-morpholin-4-yl]-3-fluoro-pyrazolo[1,5-a]pyridine-7-carbonitrile] has an inhibition at 5 min, 10 µM (CYP3A4) of 4.5%, an IC50 (human TLR8) of 68 nM and an inhibition at 5 min, 10 µM (CYP2C9) of -1.5%.
Molecule `[2H]c1ccc2c(N3C[C@H](CN4CCN(c5ccc(N[C@H]6CNC[C@H]6F)nc5)CC4)O[C@H](C)C3)ccc(C#N)c2n1` [Example 162, 2-deuterio-5-[(2S,6R)-2-[[4-[6-[[(3S,4R)-4-fluoropyrrolidin-3-yl]amino]-3-pyridyl]piperazin-1-yl]methyl]-6-methyl-morpholin-4-yl]quinoline-8-carbonitrile] has an inhibition at 5 min, 10 µM (CYP3A4) of 42.5%, an IC50 (human TLR8) of 11 nM and an inhibition at 5 min, 10 µM (CYP2C9) of -2.5%.
`C[C@@H]1CN(c2ccc(C#N)n3nccc23)C[C@H](CN2CC(c3ccc(N4CC(C)(N)C4)cc3)C2)O1` [Example 163, 4-[(2S,6R)-2-[[3-[4-(3-amino-3-methyl-azetidin-1-yl)phenyl]azetidin-1-yl]methyl]-6-methyl-morpholin-4-yl]pyrazolo[1,5-a]pyridine-7-carbonitrile] was tested, and the inhibition at 5 min, 10 µM (CYP3A4) was 0.5%, the IC50 (human TLR8) was 68 nM and the inhibition at 5 min, 10 µM (CYP2C9) was -4.5%.
`CO[C@@H]1CN(c2ccc(C3CN(C[C@H]4CN(c5ccc(C#N)n6ncc(F)c56)C[C@@H](C)O4)C3)cn2)C[C@H]1N` [Example 164, 4-[(2S,6R)-2-[[3-[6-[(3R,4R)-3-amino-4-methoxy-pyrrolidin-1-yl]-3-pyridyl]azetidin-1-yl]methyl]-6-methyl-morpholin-4-yl]-3-fluoro-pyrazolo[1,5-a]pyridine-7-carbonitrile] showed an inhibition at 5 min, 10 µM (CYP3A4) of 30.5%, an IC50 (human TLR8) of 30 nM and an inhibition at 5 min, 10 µM (CYP2C9) of -1%.
`C[C@@H]1CN(c2ccc(C#N)n3ncc(F)c23)C[C@H](CN2CC(c3ccc(N4C[C@@H]5C[C@H]4CN5)nc3)C2)O1` [Example 165, 4-[(2S,6R)-2-[[3-[6-[(1S,4S)-2,5-diazabicyclo[2.2.1]heptan-2-yl]-3-pyridyl]azetidin-1-yl]methyl]-6-methyl-morpholin-4-yl]-3-fluoro-pyrazolo[1,5-a]pyridine-7-carbonitrile] gave an inhibition at 5 min, 10 µM (CYP3A4) of 9%, an IC50 (human TLR8) of 92 nM and an inhibition at 5 min, 10 µM (CYP2C9) of -8.5%.
`CO[C@@H]1CN(c2ccc(N3CCN(C[C@H]4CN(c5ccc(C#N)n6ncc(F)c56)C[C@@H](C)O4)CC3)cn2)C[C@H]1N` [Example 166, 4-[(2S,6R)-2-[[4-[6-[(3R,4R)-3-amino-4-methoxy-pyrrolidin-1-yl]-3-pyridyl]piperazin-1-yl]methyl]-6-methyl-morpholin-4-yl]-3-fluoro-pyrazolo[1,5-a]pyridine-7-carbonitrile] was tested, and the inhibition at 5 min, 10 µM (CYP3A4) was 35.5%, the IC50 (human TLR8) was 31 nM and the inhibition at 5 min, 10 µM (CYP2C9) was -3.5%.
